Reference: patent publication US20240174662A1, “SMALL MOLECULE INHIBITORS OF SALT INDUCIBLE KINASES” (Janssen Biotech, Inc., priority 2021, published 2024)

Molecular target: SIK2 (Homo sapiens (Human), UniProt Q9H0K1)
Experiment: SIK2 Enzymatic Assay Version 2 (High ATP)
Format: biochemical
Settings: 3 mM ATP and 200 μM HDAC5tide final, ADP-Glo Max luminescence
Summary of the method: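 Luminescent ADP-Glo Max read-out: depletion reagent 2 h, then detection reagent 1 h. Before the reaction, compounds were incubated 30 min with enzyme added at 6 nM (twice final concentration), with all steps at room temperature.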

Chain of SIK2 (Q9H0K1 whole entry, species assumed): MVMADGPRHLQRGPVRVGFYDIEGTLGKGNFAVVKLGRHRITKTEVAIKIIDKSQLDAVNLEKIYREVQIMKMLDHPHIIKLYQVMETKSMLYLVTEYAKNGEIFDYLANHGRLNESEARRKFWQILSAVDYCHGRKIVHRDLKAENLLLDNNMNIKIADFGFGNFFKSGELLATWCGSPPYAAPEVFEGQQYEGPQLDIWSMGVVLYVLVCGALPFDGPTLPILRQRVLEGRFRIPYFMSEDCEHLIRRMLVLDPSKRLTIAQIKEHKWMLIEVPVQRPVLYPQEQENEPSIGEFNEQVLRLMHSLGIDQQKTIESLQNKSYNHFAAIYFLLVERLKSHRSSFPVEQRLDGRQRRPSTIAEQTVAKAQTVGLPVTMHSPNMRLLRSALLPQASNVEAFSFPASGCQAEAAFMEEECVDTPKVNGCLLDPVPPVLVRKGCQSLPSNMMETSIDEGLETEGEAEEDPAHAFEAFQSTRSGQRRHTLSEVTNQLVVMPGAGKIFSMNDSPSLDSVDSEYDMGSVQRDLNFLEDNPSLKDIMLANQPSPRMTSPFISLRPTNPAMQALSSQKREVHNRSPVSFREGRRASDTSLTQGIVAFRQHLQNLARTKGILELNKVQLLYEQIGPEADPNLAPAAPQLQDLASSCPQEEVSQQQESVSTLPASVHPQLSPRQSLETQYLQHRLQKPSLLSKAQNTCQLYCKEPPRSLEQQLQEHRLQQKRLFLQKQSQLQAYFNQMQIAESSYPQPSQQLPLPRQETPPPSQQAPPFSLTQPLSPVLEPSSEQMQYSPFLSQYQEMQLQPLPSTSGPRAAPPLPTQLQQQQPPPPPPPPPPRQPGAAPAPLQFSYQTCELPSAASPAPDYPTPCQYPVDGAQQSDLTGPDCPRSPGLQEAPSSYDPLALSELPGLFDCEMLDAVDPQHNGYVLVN

Row | IC50 [nM] | SMILES
1 | 7.7 | Cn1ncc(CO[C@@H]2CNC[C@@H]2F)c1-c1ccn2nc(NC(=O)C3CC3)cc2c1 [Example 188, N-[5-[4-[[(3R,4S)-4-fluoropyrrolidin-3-yl]oxymethyl]-2-methyl-pyrazol-3-yl]pyrazolo[1,5-a]pyridin-2-yl]cyclopropanecarboxamide]
2 | 26.5 | C[C@H]1[C@H](OCc2cnn(C)c2-c2ccn3nc(NC(=O)C4CC4)cc3c2)CN1C [Example 190, N-[5-[4-[[(2S,3R)-1,2-dimethylazetidin-3-yl]oxymethyl]-2-methyl-pyrazol-3-yl]pyrazolo[1,5-a]pyridin-2-yl]cyclopropanecarboxamide]
3 | 11.3 | Cn1ncc(COC2(C)CNC2)c1-c1ccn2nc(NC(=O)C3CC3)cc2c1 [Example 191, N-[5-[2-methyl-4-[(3-methylazetidin-3-yl)oxymethyl]pyrazol-3-yl]pyrazolo[1,5-a]pyridin-2-yl]cyclopropanecarboxamide]
4 | 19.6 | CN1CC(C)(OCc2cnn(C)c2-c2ccn3nc(NC(=O)C4CC4)cc3c2)C1 [Example 192, N-[5-[4-[(1,3-dimethylazetidin-3-yl)oxymethyl]-2-methyl-pyrazol-3-yl]pyrazolo[1,5-a]pyridin-2-yl]cyclopropanecarboxamide]
5 | 21.2 | CCC1(OCc2cnn(C)c2-c2ccn3nc(NC(=O)C4CC4)cc3c2)CNC1 [Example 193, N-[5-[4-[(3-ethylazetidin-3-yl)oxymethyl]-2-methyl-pyrazol-3-yl]pyrazolo[1,5-a]pyridin-2-yl]cyclopropanecarboxamide]
6 | 27.4 | Cc1onc(OC[C@@]23C[C@@H](CO2)N(C)C3)c1-c1ccn2nc(NC(=O)C3CC3)cc2c1 [Example 203, N-[5-[5-methyl-3-[[(1S,4S)-2-methyl-5-oxa-2-azabicyclo[2.2.1]heptan-4-yl]methoxy]isoxazol-4-yl]pyrazolo[1,5-a]pyridin-2-yl]cyclopropanecarboxamide]
7 | 15.8 | Cc1onc(OC[C@H]2CN(C)CC(C)(C)O2)c1-c1ccn2nc(NC(=O)C3CC3)cc2c1 [Example 214, N-[5-[5-methyl-3-[[(2R)-4,6,6-trimethylmorpholin-2-yl]methoxy]isoxazol-4-yl]pyrazolo[1,5-a]pyridin-2-yl]cyclopropanecarboxamide]
8 | 34.9 | Cc1onc(O[C@@H]2CN[C@@H]3CCCO[C@@H]32)c1-c1ccn2nc(NC(=O)C3CC3)cc2c1 [Example 227, (3R, 3aS, 7aR)—N-[5-[3-(1,2,3,3a,5,6,7,7a-octahydropyrano[3,2-b]pyrrol-3-yloxy)-5-methyl-isoxazol-4-yl]pyrazolo[1,5-a]pyridin-2-yl]cyclopropanecarboxamide]
9 | 23.8 | Cn1ncc(OC[C@@H]2CCNC2)c1-c1ccn2nc(NC(=O)C3CC3)cc2c1 [Example 229, N-[5-[2-methyl-4-[[(3R)-pyrrolidin-3-yl]methoxy]pyrazol-3-yl]pyrazolo[1,5-a]pyridin-2-yl]cyclopropanecarboxamide]
10 | 41.8 | Cn1ncc(OC[C@@H]2CNCCO2)c1-c1ccn2nc(NC(=O)C3CC3)cc2c1 [Example 230, N-[5-[2-methyl-4-[[(2S)-morpholin-2-yl]methoxy]pyrazol-3-yl]pyrazolo[1,5-a]pyridin-2-yl]cyclopropanecarboxamide]
11 | 46.9 | Cn1ncc(OCC2(N)CCC2)c1-c1ccn2nc(NC(=O)C3CC3)cc2c1 [Example 231, N-[5-[4-[(1-aminocyclobutyl)methoxy]-2-methyl-pyrazol-3-yl]pyrazolo[1,5-a]pyridin-2-yl]cyclopropanecarboxamide]
12 | 30.2 | C[C@@H]1C[C@H](Oc2cnn(C)c2-c2ccn3nc(NC(=O)C4CC4)cc3c2)CN1 [Example 233, N-[5-[2-methyl-4-[(3S,5R)-5-methylpyrrolidin-3-yl]oxy-pyrazol-3-yl]pyrazolo[1,5-a]pyridin-2-yl]cyclopropanecarboxamide]
13 | 1.1 | Cn1ncc(OC[C@@]23CN[C@@H](CO2)C3)c1-c1ccn2nc(NC(=O)C3CC3)cc2c1 [Example 234, N-[5-[2-methyl-4-[[(1R,4R)-5-oxa-2-azabicyclo[2.2.1]heptan-4-yl]methoxy]pyrazol-3-yl]pyrazolo[1,5-a]pyridin-2-yl]cyclopropanecarboxamide]
14 | < 0.847 | Cn1ncc(OC[C@@H](N)c2ccccc2)c1-c1ccn2nc(NC(=O)C3CC3)cc2c1 [Example 235, N-[5-[4-[(2S)-2-amino-2-phenyl-ethoxy]-2-methyl-pyrazol-3-yl]pyrazolo[1,5-a]pyridin-2-yl]cyclopropanecarboxamide]
15 | 29.1 | Cn1ncc(O[C@H]2CCNC2)c1-c1ccn2nc(NC(=O)C3CC3)cc2c1 [Example 236, N-[5-[2-methyl-4-[(3S)-pyrrolidin-3-yl]oxy-pyrazol-3-yl]pyrazolo[1,5-a]pyridin-2-yl]cyclopropanecarboxamide]
16 | 10.7 | Cn1ncc(OC[C@H](N)c2ccccc2)c1-c1ccn2nc(NC(=O)C3CC3)cc2c1 [Example 237, N-[5-[4-[(2R)-2-amino-2-phenyl-ethoxy]-2-methyl-pyrazol-3-yl]pyrazolo[1,5-a]pyridin-2-yl]cyclopropanecarboxamide]
17 | 22.7 | CN1CCC[C@@H]1COc1cnn(C)c1-c1ccn2nc(NC(=O)C3CC3)cc2c1 [Example 239, N-[5-[2-methyl-4-[[(2R)-1-methylpyrrolidin-2-yl]methoxy]pyrazol-3-yl]pyrazolo[1,5-a]pyridin-2-yl]cyclopropanecarboxamide]

Second part, the molecule before the results:

Row | SMILES | IC50 [nM]
18 | Cc1onc(OCC2(C(N)=O)CNC2)c1-c1ccn2nc(NC(=O)C3CC3)cc2c1 [Example 198, 3-[[4-[2-(cyclopropanecarbonylamino)pyrazolo[1,5-a]pyridin-5-yl]-5-methyl-isoxazol-3-yl]oxymethyl]azetidine-3-carboxamide] | 28.7
19 | Cc1onc(OCC2(c3ccccc3)CNC2)c1-c1ccn2nc(NC(=O)C3CC3)cc2c1 [Example 199, N-[5-[5-methyl-3-[(3-phenylazetidin-3-yl)methoxy]isoxazol-4-yl]pyrazolo[1,5-a]pyridin-2-yl]cyclopropanecarboxamide] | 14.1
20 | Cc1onc(OC[C@@]23CN[C@@H](CO2)C3)c1-c1ccn2nc(NC(=O)C3CC3)cc2c1 [Example 201, N-[5-[5-methyl-3-[[(1R,4R)-5-oxa-2-azabicyclo[2.2.1]heptan-4-yl]methoxy]isoxazol-4-yl]pyrazolo[1,5-a]pyridin-2-yl]cyclopropanecarboxamide] | 42.1
21 | Cc1onc(OC[C@H](N)c2ccccc2)c1-c1ccn2nc(NC(=O)C3CC3)cc2c1 [Example 204, N-[5-[3-[(2R)-2-amino-2-phenyl-ethoxy]-5-methyl-isoxazol-4-yl]pyrazolo[1,5-a]pyridin-2-yl]cyclopropanecarboxamide] | 17.4
22 | COC1(COc2noc(C)c2-c2ccn3nc(NC(=O)C4CC4)cc3c2)CCNCC1 [Example 206, N-[5-[3-[(4-methoxy-4-piperidyl)methoxy]-5-methyl-isoxazol-4-yl]pyrazolo[1,5-a]pyridin-2-yl]cyclopropanecarboxamide] | 35
23 | Cc1onc(OC[C@H](c2ccccc2)N(C)C)c1-c1ccn2nc(NC(=O)C3CC3)cc2c1 [Example 207, N-[5-[3-[(2S)-2-(dimethylamino)-2-phenyl-ethoxy]-5-methyl-isoxazol-4-yl]pyrazolo[1,5-a]pyridin-2-yl]cyclopropanecarboxamide] | 7.6
24 | Cc1onc(OC[C@H]2CCN2CC#N)c1-c1ccn2nc(NC(=O)C3CC3)cc2c1 [Example 213, N-[5-[3-[[(2R)-1-(cyanomethyl)azetidin-2-yl]methoxy]-5-methyl-isoxazol-4-yl]pyrazolo[1,5-a]pyridin-2-yl]cyclopropanecarboxamide] | 15.3
25 | Cc1onc(OC[C@@H](N)c2ccccc2F)c1-c1ccn2nc(NC(=O)C3CC3)cc2c1 [Example 220, N-[5-[3-[(2S)-2-amino-2-(2-fluorophenyl)ethoxy]-5-methyl-isoxazol-4-yl]pyrazolo[1,5-a]pyridin-2-yl]cyclopropanecarboxamide] | 4.9
26 | Cc1onc(OC[C@H](N)c2ccccc2F)c1-c1ccn2nc(NC(=O)C3CC3)cc2c1 [Example 221, N-[5-[3-[(2R)-2-amino-2-(2-fluorophenyl)ethoxy]-5-methyl-isoxazol-4-yl]pyrazolo[1,5-a]pyridin-2-yl]cyclopropanecarboxamide] | 23.2
27 | Cc1onc(OC[C@@H](c2ccccc2F)N(C)C)c1-c1ccn2nc(NC(=O)C3CC3)cc2c1 [Example 222, N-[5-[3-[(2R)-2-(dimethylamino)-2-(2-fluorophenyl)ethoxy]-5-methyl-isoxazol-4-yl]pyrazolo[1,5-a]pyridin-2-yl]cyclopropanecarboxamide] | 27.5
28 | Cc1onc(OC[C@@H](N)c2ccccn2)c1-c1ccn2nc(NC(=O)C3CC3)cc2c1 [Example 223, N-[5-[3-[(2S)-2-amino-2-(2-pyridyl)ethoxy]-5-methyl-isoxazol-4-yl]pyrazolo[1,5-a]pyridin-2-yl]cyclopropanecarboxamide] | 30.7
29 | CN[C@H](COc1noc(C)c1-c1ccn2nc(NC(=O)C3CC3)cc2c1)c1ccccn1 [Example 224, N-[5-[5-methyl-3-[(2S)-2-(methylamino)-2-(2-pyridyl)ethoxy]isoxazol-4-yl]pyrazolo[1,5-a]pyridin-2-yl]cyclopropanecarboxamide] | 21.4
30 | Cc1onc(OC[C@@](C)(N)c2ccccc2)c1-c1ccn2nc(NC(=O)C3CC3)cc2c1 [Example 225, N-[5-[3-[(2S)-2-amino-2-phenyl-propoxy]-5-methyl-isoxazol-4-yl]pyrazolo[1,5-a]pyridin-2-yl]cyclopropanecarboxamide] | 12
31 | Cc1onc(OC[C@](C)(c2ccccc2)N(C)C)c1-c1ccn2nc(NC(=O)C3CC3)cc2c1 [Example 226, N-[5-[3-[(2S)-2-(dimethylamino)-2-phenyl-propoxy]-5-methyl-isoxazol-4-yl]pyrazolo[1,5-a]pyridin-2-yl]cyclopropanecarboxamide] | 12.8
